Results from PubChem BioAssay AID624425 (The Scripps Research Institute Molecular Screening Center, 2012).

Target: Serine/threonine-protein phosphatase 5 (Homo sapiens) (UniProt P53041)
Assay: PP5 catalytic domain inhibition IC50 – biochemical, fluorescence, round 5, powder samples, dose response (AID 624425)
Details: purified PP5c, OMFP dephosphorylation;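 active means compounds whose IC50, the dose halving PP5 enzyme activity, is under 25 micromolar; inactive means the rest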

Chain of Serine/threonine-protein phosphatase 5 (Homo sapiens) (P53041 whole entry, looked up, the tested form may be a part): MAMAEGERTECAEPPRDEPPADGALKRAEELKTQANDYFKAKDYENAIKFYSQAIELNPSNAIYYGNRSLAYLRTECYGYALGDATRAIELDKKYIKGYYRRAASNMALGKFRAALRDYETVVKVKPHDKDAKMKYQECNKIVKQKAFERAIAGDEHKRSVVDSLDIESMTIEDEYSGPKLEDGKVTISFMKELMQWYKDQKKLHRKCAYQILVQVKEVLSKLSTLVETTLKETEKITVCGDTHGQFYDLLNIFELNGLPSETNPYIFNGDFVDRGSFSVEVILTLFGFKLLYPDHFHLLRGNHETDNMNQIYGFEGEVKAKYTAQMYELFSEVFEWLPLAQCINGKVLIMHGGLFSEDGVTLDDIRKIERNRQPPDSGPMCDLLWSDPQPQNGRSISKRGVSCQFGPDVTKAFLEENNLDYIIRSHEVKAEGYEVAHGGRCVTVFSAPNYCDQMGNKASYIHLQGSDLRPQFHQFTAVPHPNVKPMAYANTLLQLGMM

IC50, active:
COc1ccc(-c2n[nH]nc2C(=O)O)cc1 23.1 µM, O=C(O)c1n[nH]nc1-c1ccc(F)cc1 24.1 µM, COc1cccc(-c2n[nH]nc2C(=O)O)c1 10.9 µM, O=C(O)c1n[nH]nc1-c1ccccc1O 7.74 µM, O=C(O)c1n[nH]nc1-c1ccccc1F 7.75 µM, O=C(O)c1n[nH]nc1-c1cccc(F)c1 17.8 µM, COc1ccccc1-c1n[nH]nc1C(=O)O 6 µM
